Experimental data as given in PubChem BioAssay AID1919017 (Molecular Pharmacology Branch, DTP, NCI, 2023).
“And” between values parts separate entries of the source, which are not always exact repeats. Equal values may be shown once.

Test system: SW1271 complex spheroids with HUVEC/MSC, growth, % test/control
Assay: Anticancer human tumor SW1271 cell line growth inhibition [AhR];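 note: spheroids exposed to agents for 7 days before readout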
Conditions: for viability, T/C: stronger effect = lower value
Excerpt: Multicellular complex tumor spheroid response to aryl hydrocarbon receptor antagonists in combination with a variety of drugs and investigational agents in selected tumor cell lines
The current study was undertaken to assess response to aryl hydrocarbon receptor antagonists in combination with standard-of-care drugs and investigational agents in solid tumor complex spheroid models. Complex spheroids include a stromal component modeled by human endothelial cells (HUVEC) and fibroblasts modeled by human mesenchymal stem cells (MSCs). The concentration ranges selected for each drug and investigational agent were based upon clinically achievable concentrations if the clinical Cmax of the agent was known.
Compounds. The drugs and investigational agents: BAY 2416964 (NSC825713), GNF351 (NSC835774), CH-223191 (NSC835775), CPI-455 (NSC825282), aza-TdCyd (NSC777586), decitabine (NSC127716), belinostat (NSC758774), entinostat (NSC756642), pevonedistat (NSC761192), tazemetostat (NSC777109), talazoparib (NSC765396), olaparib (NSC753686), selinexor (NSC780203), nedisertib (M3814, NSC802822), bortezomib (NSC756655), venetoclax (NSC766270), doxorubicin (NSC123127), elimusertib (BAY189344, NSC800525), ceralasertib (AZD6738, NSC777638), TAK-243 (NSC785004), alisertib (NSC759677), etoposide (NSC141540), topotecan (NSC609699), eribulin (NSC707389), gemcitabine (NSC613327), carboplatin (NSC241240), cisplatin (NSC119875), and SN-38 (NSC673596) were obtained from the National Cancer Institute (NCI) Developmental Therapeutics Program Chemical Repository (32). The FDA-approved anticancer drug set is available from the Developmental Therapeutics Program at https://dtp.cancer.gov/organization/dscb/obtaining/available plates.htm. […] The stock solutions were prepared in dimethyl sulfoxide (DMSO, Sigma-Aldrich, St. Louis, MO, cat. D2650), except for the platinum compounds which were prepared in saline (Quality Biological, Gaithersburg, MD, cat. 114-055-101), at 800-fold the tested concentration and stored at -70 degrees C prior to their use. All drugs and investigational agents were tested over a range starting from a high concentration at or near the clinical Cmax and decreasing in half-log increments. If the clinical Cmax for an agent had not been determined, the highest concentration tested was 10 microM (Table 1).
Cell Culture. All cells were maintained in an incubator at 37 degrees C and 5% CO2 with 95% humidity. The PDC lines were cultured according to standard operating procedures established by the NCI PDMR (https://pdmr.cancer.gov). Briefly, all PDCs were thawed and cultured in Matrigel-coated flasks prepared with a working solution of 1X Ham's F-12 nutrient mix, without supplementation (Invitrogen, Waltham, MA, cat. 11765054), 100 U/mL penicillin-streptomycin (Invitrogen, cat. 15140122), and 2.5% Matrigel (Corning Inc., Corning, NY, cat. 354248) for the first three passages. All PDCs were cultured in complete DMEM/F-12 media containing advanced DMEM/F-12 (Invitrogen, cat. 12634028), 4.9% defined fetal bovine serum, heat inactivated (HyClone Laboratories Inc., Logan, UT, cat. SH30070.03HI), 389 ng/mL hydrocortisone (Sigma-Aldrich, cat. H4001), 9.7 ng/mL human EGF recombinant protein (Invitrogen, cat. PHG0313), 23.4 microg/mL adenine (Sigma-Aldrich, cat. A2786), 97.3 U/mL penicillin-streptomycin (Invitrogen, cat. 15140122), 1.9 mM L-glutamine (Invitrogen, cat. 25030081), and 9.7 microM Y-27632 dihydrochloride (Tocris Bioscience, Bristol, United Kingdom, cat. 1254). The PDCs were cultured in complete DMEM/F12 media without 10 microM Y-27632 dihydrochloride for at least two passages prior to the screen. The established cell lines NCI-H1341 and […] were cultured in DMEM/F-12, HEPES (Invitrogen, cat. 11330032), 5% defined fetal bovine serum (HyClone Laboratories Inc., cat. SH30070.03), ITS premix universal culture supplement [insulin (5 microg/mL), transferrin (5 microg/mL), and selenious acid (5 ng/mL)] […]

[1] = curve of first compound, second compound 0.1 µM
[2] = curve of first compound, second compound 0.316 µM
[3] = curve of first compound, second compound 1 µM
[4] = curve of first compound, second compound 3.16 µM
[5] = curve of first compound, second compound 10 µM
[6] = second compound 0.1 µM, first compound 0.0316 µM
[7] = second compound 0.1 µM, first compound 0.1 µM
[8] = second compound 0.1 µM, first compound 0.316 µM
[9] = second compound 0.1 µM, first compound 1 µM
[10] = second compound 0.316 µM, first compound 0.0316 µM
[11] = second compound 0.316 µM, first compound 0.1 µM
[12] = second compound 0.316 µM, first compound 0.316 µM
[13] = second compound 0.316 µM, first compound 1 µM
[14] = second compound 1 µM, first compound 0.0316 µM
[15] = second compound 1 µM, first compound 0.1 µM
[16] = second compound 1 µM, first compound 0.316 µM
[17] = second compound 1 µM, first compound 1 µM
[18] = second compound 3.16 µM, first compound 0.0316 µM
[19] = second compound 3.16 µM, first compound 0.1 µM
[20] = second compound 3.16 µM, first compound 0.316 µM
[21] = second compound 3.16 µM, first compound 1 µM
[22] = second compound 10 µM, first compound 0.0316 µM
[23] = second compound 10 µM, first compound 0.1 µM
[24] = second compound 10 µM, first compound 0.316 µM
[25] = second compound 10 µM, first compound 1 µM
[26] = second compound 0.1 µM, first compound 0.00316 µM
[27] = second compound 0.1 µM, first compound 0.01 µM
[28] = second compound 0.316 µM, first compound 0.00316 µM
[29] = second compound 0.316 µM, first compound 0.01 µM
[30] = second compound 1 µM, first compound 0.00316 µM
[31] = second compound 1 µM, first compound 0.01 µM
[32] = second compound 3.16 µM, first compound 0.00316 µM
[33] = second compound 3.16 µM, first compound 0.01 µM
[34] = second compound 10 µM, first compound 0.00316 µM
[35] = second compound 10 µM, first compound 0.01 µM

| SMILES | IC50 [1] [nM] | IC50 [2] [nM] | IC50 [3] [nM] | IC50 [4] [nM] | IC50 [5] [nM] | viability, T/C [6] [%] | viability, T/C [7] [%] | viability, T/C [8] [%] | viability, T/C [9] [%] | viability, T/C [10] [%] | viability, T/C [11] [%] | viability, T/C [12] [%] | viability, T/C [13] [%] | viability, T/C [14] [%] | viability, T/C [15] [%] | viability, T/C [16] [%] | viability, T/C [17] [%] | viability, T/C [18] [%] | viability, T/C [19] [%] | viability, T/C [20] [%] | further results |
| --- | --- | --- | --- | --- | --- | --- | --- | --- | --- | --- | --- | --- | --- | --- | --- | --- | --- | --- | --- | --- | --- |
| CC(C)c1c(-c2ccccc2)nc2c(C#N)c[nH]n2c1=O + Cc1ccccc1N=Nc1ccc(NC(=O)c2ccnn2C)c(C)c1 | > 10000 | > 10000 | > 10000 | > 10000 | > 10000 | 99.6 | 85.9 | 94.9 | 78 | 102 | 110 | 112 | 107 | 90.5 | 97.6 | 91 | 113 | 93.3 | 88.3 | 130 | viability, T/C (second compound 0.1 µM, first compound 3.16 µM): 102%; viability, T/C (second compound 0.1 µM, first compound 10 µM): 102%; viability, T/C (second compound 0.316 µM, first compound 3.16 µM): 85.3%; viability, T/C (second compound 0.316 µM, first compound 10 µM): 77.3%; viability, T/C (second compound 1 µM, first compound 3.16 µM): 107%; viability, T/C (second compound 1 µM, first compound 10 µM): 94.4%; viability, T/C [21]: 109%; viability, T/C (second compound 3.16 µM, first compound 3.16 µM): 119%; viability, T/C (second compound 3.16 µM, first compound 10 µM): 101%; viability, T/C [22]: 76.5%; viability, T/C [23]: 88.5%; viability, T/C [24]: 108%; viability, T/C [25]: 113%; viability, T/C (second compound 10 µM, first compound 3.16 µM): 88.2%; viability, T/C (second compound 10 µM, first compound 10 µM): 87.6% |
| CC1COCCN1c1cc(-c2ccnn2C)c2ccnc(-c3ccn[nH]3)c2n1 (configuration not stated) + CC(CO)NC(=O)c1cc(-c2ccc(Cl)cc2)nn(-c2cnn(C)c2)c1=O | 916 | 867 | > 1000 | 694 | 543 | 94.4 | 82.1 | 67.8 | 48.5 | 81.7 | 84.3 | 70 | 46.8 | 86.7 | 80.7 | 65.7 | 49.1 | 75.5 | 75.9 | 57.2 | viability, T/C [26]: 102%; viability, T/C [27]: 97.5%; viability, T/C [28]: 92.5%; viability, T/C [29]: 96.1%; viability, T/C [30]: 110%; viability, T/C [31]: 98.2%; viability, T/C [32]: 84.5%; viability, T/C [33]: 79.2%; viability, T/C [21]: 45.6%; viability, T/C [34]: 88.9%; viability, T/C [35]: 75%; viability, T/C [22]: 68.5%; viability, T/C [23]: 66.6%; viability, T/C [24]: 47.9%; viability, T/C [25]: 47.6% |
| Nc1ncn(C2CC(O)C(CO)O2)c(=O)n1 (configuration not stated) + Cc1ccccc1N=Nc1ccc(NC(=O)c2ccnn2C)c(C)c1 | > 1000 | > 1000 | > 1000 | > 1000 | > 1000 | 64.3 | 60.1 | 63 | 49.4 | 69 | 76.1 | 72 | 59.6 | 72.7 | 62.9 | 75.4 | 60.2 | 79.9 | 63.7 | 64.1 | viability, T/C [26]: 81.5%; viability, T/C [27]: 86.8%; viability, T/C [28]: 82.2%; viability, T/C [29]: 66.9%; viability, T/C [30]: 79.8%; viability, T/C [31]: 71.3%; viability, T/C [32]: 72.7%; viability, T/C [33]: 83.2%; viability, T/C [21]: 59%; viability, T/C [34]: 76.1%; viability, T/C [35]: 65.5%; viability, T/C [22]: 66.1%; viability, T/C [23]: 71.5%; viability, T/C [24]: 65%; viability, T/C [25]: 69.9% |
| Nc1ccccc1NC(=O)c1ccc(CNC(=O)OCc2cccnc2)cc1 |  |  |  |  |  |  |  |  |  |  |  |  |  |  |  |  |  |  |  |  | viability, T/C (compound 0.0316 µM): 107% and 114% and 87.5%; viability, T/C (compound 0.1 µM): 112% and 89.2% and 77%; viability, T/C (compound 0.316 µM): 72.5% and 61% and 59.9%; viability, T/C (compound 1 µM): 62.2% and 60.4% and 45.5%; viability, T/C (compound 3.16 µM): 37.6% and 38.3% and 33.3%; viability, T/C (compound 10 µM): 10.4% and 14.2% and 7.86%; IC50 (curve of compound): 1620 nM and 1180 nM and 765 nM |
